Laboratory results published in patent publication US7041677B2, “Use of monochloroflosequinan in the treatment of sexual dysfunction” (R.T. Alamo Ventures I, LLC, priority 2002, dated 2006).

Legend:
PDE2 = molecular target: T1, PDE2 (Homo sapiens, UniProt O00408); assay: PDE2 enzyme inhibition assay; type: biochemical; details: 1% DMSO vehicle
T1 construct: PDE2 partially purified from human platelets was used; from tissue; host or cells: human platelets
Description: (§1) In this example, a racemic mixture of monochloroflosequinan and the sulfone derivative of monochloroflosequinan were independently subjected to biochemical enzyme assays to determine their respective percent inhibition of a variety of phosphodiesterases (PDE1-PDE6). The methods used have been adapted from those described in the scientific literature, see Hidaka and Asano “Human blood platelet 3′:5′ cyclic nucleotide phosphodiesterase. Isolation of low-Km and high Km phosphodiesterase.” Biochem. Biophys. […] Unhydrolyzed cAMP was bound to AGI-X2 resin, and the remaining [^3H]adenosine in the aqueous phase was quantitated by scintillation counting. • PDE2: PDE2 partially purified from human platelets was used. […] Unhydrolyzed cAMP was bound to AGI-X2 resin, and the remaining [^3H]adenosine in the aqueous phase was quantitated by scintillation counting. • PDE3: PDE3 partially purified from human platelets was used. […] Unhydrolyzed cAMP was bound to AGI-X2 resin, and the remaining [^3H]adenosine in the aqueous phase was quantitated by scintillation counting. • PDE4: PDE4 partially purified from human U-937 pronocytic cells was used. […] Unhydrolyzed cAMP was bound to AGI-X2 resin, and the remaining [^3H]adenosine in the aqueous phase was quantitated by scintillation counting. • PDE5: PDE5 partially purified from human platelets was used. […]

[1] = Plasma levels following oral administration; type: in vivo
PDE4 = PDE4 enzyme inhibition assay; type: biochemical, human; details: 200 μM, 25° C., 1% DMSO vehicle
Description: as §1

T1 sequence (O00408 whole entry): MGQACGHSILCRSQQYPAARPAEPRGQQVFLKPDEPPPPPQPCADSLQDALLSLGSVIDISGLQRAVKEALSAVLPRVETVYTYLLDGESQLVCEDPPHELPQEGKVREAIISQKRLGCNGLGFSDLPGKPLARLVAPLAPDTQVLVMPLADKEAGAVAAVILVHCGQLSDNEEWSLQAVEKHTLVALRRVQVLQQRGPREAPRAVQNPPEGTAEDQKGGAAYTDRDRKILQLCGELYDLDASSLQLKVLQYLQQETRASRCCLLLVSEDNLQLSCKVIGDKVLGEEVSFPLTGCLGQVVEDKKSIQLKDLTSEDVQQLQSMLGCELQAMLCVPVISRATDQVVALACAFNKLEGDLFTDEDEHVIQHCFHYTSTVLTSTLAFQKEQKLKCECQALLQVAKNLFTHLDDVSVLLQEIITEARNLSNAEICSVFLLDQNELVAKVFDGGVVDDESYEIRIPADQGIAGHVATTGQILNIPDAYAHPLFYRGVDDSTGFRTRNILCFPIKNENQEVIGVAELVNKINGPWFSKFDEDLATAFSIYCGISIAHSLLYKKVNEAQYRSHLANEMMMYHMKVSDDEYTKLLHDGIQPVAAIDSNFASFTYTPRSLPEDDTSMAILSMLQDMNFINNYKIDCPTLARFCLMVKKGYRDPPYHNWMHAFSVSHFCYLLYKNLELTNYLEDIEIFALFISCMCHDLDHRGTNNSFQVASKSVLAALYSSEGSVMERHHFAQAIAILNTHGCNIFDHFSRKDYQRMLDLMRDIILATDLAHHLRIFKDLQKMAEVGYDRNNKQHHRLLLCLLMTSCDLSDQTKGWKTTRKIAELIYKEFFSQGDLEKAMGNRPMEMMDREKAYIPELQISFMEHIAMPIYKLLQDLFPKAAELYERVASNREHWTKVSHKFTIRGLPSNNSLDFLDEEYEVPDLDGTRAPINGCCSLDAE

Cn1cc([S+]([O-])CCl)c(=O)c2ccc(F)cc21 (racemic) [monochloroflosequinan, 3-chloromethylsulfinyl-7-fluoro-1-methyl-4-quinolone]
inhibition of PDE2 (PDE2; 100 uM, 30° C.): Significant inhibition

Cn1cc([S@+]([O-])CCl)c(=O)c2ccc(F)cc21 (single isomer, unassigned) [(+)-enantiomer of monochloroflosequinan]
inhibition of PDE2 (PDE2; 200 μM, 25° C.): greater than 50% | time of peak plasma concentrations ([1]; following oral administration): 1 to 2 h | time of peak metabolite plasma levels ([1]; following oral dosage): about seven

Cn1cc([S@@+]([O-])CCl)c(=O)c2ccc(F)cc21 (single isomer, unassigned) [(−)-enantiomer of monochloroflosequinan]
inhibition of PDE4 (PDE4): greater than 50%
